Data on three molecules can be found in US9387184B2, “Pharmaceutical compositions for combination therapy” (Saniona A/S, priority 2012, dated 2016).

For data set [1] the following is noted: long-term treatment, corrected for placebo and diet effects; cited from earlier work.
Data set [2] is described as follows: Telemetric monitoring of heart rate and blood pressure in rats. The class given is in vivo, rat. The protocol: (§1) Five months-old male normotensive Sprague-Dawley rats (508±18 g, Harlan, Horst, The Netherlands) were housed in solid bottomed Plexiglas cages with dust free wood chippings and a cardboard tube. Holding rooms were maintained under a 12-h light/dark cycle (lights off: 1500 h). Ambient temperature was 18.0 to 22.0° C. and relative air humidity of 40 to 60%. A dim red light was the sole source of illumination during the dark period. The rats had ad libitum standard chow (Altromin 1324, 10% kcal from fat, energy density 2.85 kcal per g, Altromin GmbH, Lage, Germany) and water. All experiments were approved (permission no. 2007/561-1343) and conducted in accordance with the guidelines of the Animal Experimentation Inspectorate, Ministry of Justice, Denmark.
The rats were implanted at Harlan laboratories, Horst, the Netherlands, with Data Science International (DSI, St. Paul, USA) Physiotel PA-C40 transmitters according to the manufactures description. In brief, the rats were anaesthetized with isoflurane, ventilated, and a laparotomy was performed under aseptic conditions. A pressure catheter was inserted and sealed in place with Vetbond (3M, St. Paul, USA) into the isolated abdominal aorta. Finally, the transmitter was placed on top of the intestines, in parallel to the long axis of the body, and secured to the abdominal wall, where after the abdominal muscle layer and skin was closed with solvable sutures. The animals were allowed full post-surgical recovery before shipment. Blood pressure (systolic and diastolic arterial blood pressure) and heart rate (pulse rate) data were collected at a sampling rate of 500 Hz using Dataquest A.R.T (v.4.3) and Ponemah software (v.5.0) (DSI, St. Paul, USA) using factory-provided calibration values for the individual transmitters and an Ambient Pressure Reference Monitor (DSI, St. Paul, USA) to ensure accurate blood pressure measurements. Data were collected continuously for 48 h and binned in 5 s intervals.
Upon 2-3 weeks of post-surgery recovery, the rats were transferred to fully automated food intake monitoring cages (HM-2, MBRose, Faaborg, Denmark) modified to simultaneously determine individualized food intake (by microchip, see below) and cardiovascular condition (by telemetry). For combined telemetry analysis, two receivers (RPC-1, Data Sciences International, St. Paul, Minn.) were placed in the bottom of each HM-2 food intake monitoring cages thereby fully covering the cage surface area. The modified HM-2 food intake monitoring cages were placed in a modified ventilated cabinet with lightproof doors and a light kit for cabinet-based control of light-dark cycle (Scanbur BK, Karslunde, Denmark) being similar to that in the holding rooms. Cabinet temperature was 24.0 to 26.0° C. and relative air humidity of 40 to 60%. The animals were habituated to the HM-2 food intake monitoring system for at least 5 days prior to initiation of drug treatment procedures. Prior to re-housing to the fully automated food intake monitoring cages, the rats were subcutaneuosly injected with a microchip (#402575, eVet, Haderslev, Denmark) to simultaneously identify, and in real-time mode to track feeding behavior of each individual animal throughout the entire experiment. Locomotor activity was detected by an integrated infrared sensor placed above the cage. Standard HM-2 control unit settings are reported previously in further details^7. All drugs and saline vehicle were administered 30 min before dark onset. All rats received the same treatment in each individual experiment, i.e. a parallel study design was used, and a wash-out period of at least 5 days was used between treatments to assure re-establishment of baseline levels of food intake, locomotor activity, heart rate and blood pressure. […]

Data set [3] is described as follows: Real-time feeding monitoring (food intake) in telemetrized rats. The class given is in vivo, rat. As to conditions: for effect on food intake per se: antihypertensive drug alone, p.o.; for effect on tesofensine-induced reduction in food intake: co-administered with tesofensine 3.0 mg/kg p.o., Metoprolol 10, 20 mg/kg, Telmisartan 1.0, 3.0 mg/kg p.o. The protocol: as §1
(§2) Upon 2-3 weeks of post-surgery recovery, the rats were transferred to fully automated food intake monitoring cages (HM-2, MBRose, Faaborg, Denmark) modified to simultaneously determine individualized food intake (by microchip, see below) and cardiovascular condition (by telemetry). For combined telemetry analysis, two receivers (RPC-1, Data Sciences International, St. Paul, Minn.) were placed in the bottom of each HM-2 food intake monitoring cages thereby fully covering the cage surface area. The modified HM-2 food intake monitoring cages were placed in a modified ventilated cabinet with lightproof doors and a light kit for cabinet-based control of light-dark cycle (Scanbur BK, Karslunde, Denmark) being similar to that in the holding rooms. Cabinet temperature was 24.0 to 26.0° C. and relative air humidity of 40 to 60%. The animals were habituated to the HM-2 food intake monitoring system for at least 5 days prior to initiation of drug treatment procedures. Prior to re-housing to the fully automated food intake monitoring cages, the rats were subcutaneuosly injected with a microchip (#402575, eVet, Haderslev, Denmark) to simultaneously identify, and in real-time mode to track feeding behavior of each individual animal throughout the entire experiment. Locomotor activity was detected by an integrated infrared sensor placed above the cage. Standard HM-2 control unit settings are reported previously in further details^7. All drugs and saline vehicle were administered 30 min before dark onset. All rats received the same treatment in each individual experiment, i.e. a parallel study design was used, and a wash-out period of at least 5 days was used between treatments to assure re-establishment of baseline levels of food intake, locomotor activity, heart rate and blood pressure. The home cage was removed from the HM-2 food intake monitoring system during the drug administration procedure and returned immediately after completion of the drug administration, whereupon automated monitoring of feeding behavior and cardiovascular parameters of each individual animal was resumed. Body weight was measured daily. Body weight and microstructural food intake analysis was performed using a data reporting software (HMView, MBRose, Faaborg, Denmark).
(§3) Data were fed into a standard graphic and statistical analysis program (GraphPad Prism v.4.03). Body weight data were calculated as absolute values (g) or daily body weight gain relative (control level=100%) to the first day of drug administration (day 0). Body weight gain and food intake were expressed as means±S.E.M of n individual animals. After acquisition of telemetry data, 12-hour means were calculated using Microsoft Excel 2007. Finally, statistical analysis and data presentation (mean±S.E.M.) was performed using GraphPad Prism v.4.03). All data were evaluated using a repeated-measure one-way ANOVA with Tukey's post-hoc test was applied to perform statistical comparisons between treatment groups. A p-value less than 0.05 was considered statistically significant.
(§4) All drugs were administered p.o. (1.0 ml/kg). […]

The nature of data set [4]: Body weight in telemetrized rats. In kind it is in vivo, rat. As to conditions: for effect on body weight regulation per se: antihypertensive drug alone, p.o.; for effect on tesofensine-induced reduction in body weight: co-administered with tesofensine 3.0 mg/kg p.o., Metoprolol 10, 20 mg/kg, Telmisartan 1.0, 3.0 mg/kg p.o. On the procedure: as §1, §2, §3, §4
Data set [5] can be described thus: Locomotor activity in telemetrized rats (infrared sensor). In kind it is in vivo, rat. The protocol:
as §1
Upon 2-3 weeks of post-surgery recovery, the rats were transferred to fully automated food intake monitoring cages (HM-2, MBRose, Faaborg, Denmark) modified to simultaneously determine individualized food intake (by microchip, see below) and cardiovascular condition (by telemetry). For combined telemetry analysis, two receivers (RPC-1, Data Sciences International, St. Paul, Minn.) were placed in the bottom of each HM-2 food intake monitoring cages thereby fully covering the cage surface area. […] Locomotor activity was detected by an integrated infrared sensor placed above the cage. […] Body weight was measured daily. […]
as §3, with “Finally, statistical analysis and data presentation (mean±S.E.M.) was performed using GraphPad Prism v.4.03).” left out, “A p-value less than 0.05 was considered statistically significant.” left out

The mark [6] stands for this setting: tesofensine 1.0-5.0 mg/kg p.o., acute.
Where [7] appears, read: 3.0-5.0 mg/kg p.o., acute, evident for at least 48 hours, compared to vehicle-treated rats.

Bounds are passed on as bounds.

Regarding `CCOC[C@@H]1[C@@H](c2ccc(Cl)c(Cl)c2)C[C@@H]2CC[C@H]1N2C` [Tesofensine], the “weight loss in obese patients” value in data set [1] is listed as “about 10%”. In data set [2] (tesofensine 3.0 mg/kg and 5.0 mg/kg p.o., up to 48 hours after administration), the systolic blood pressure entry is reported as “dose-dependent modest increase in systolic blood pressure”. For the same molecule, the heart rate entry in data set [2] (tesofensine 3.0 mg/kg p.o., Telmisartan combination study) is reported as “significantly increase heart rate”; in data set [2] (setting [6]), “dose-dependent increase in heart rate at all doses tested”. For the same molecule, the “duration of heart rate increase” value in data set [2] (setting [6]) is on record as “up to 48 hours”. The diastolic blood pressure entry in data set [2] (tesofensine 1.0-5.0 mg/kg p.o., highest dose not significant (p=0.204)) is recorded as “trend towards a dose-dependent rise in diastolic blood pressure”. The “duration of hypophagic effect” value in data set [3] (5.0 mg/kg p.o., acute) was ≤ 48 h; in data set [3] (3.0-5.0 mg/kg p.o., acute), ≤ 24 h; in data set [3] (all doses (1.0-5.0 mg/kg p.o.), acute) it was “up to 12 hours”. The “food intake relative to the control level” value in data set [3] (tesofensine 5.0 mg/kg p.o., acute, 12 hours post-dosing, p<0.001) is “approximately 50%”. In data set [4] (setting [7]), the “net body weight loss (absolute)” value lay within 8 to 11 g. In data set [4] (setting [7]), the “net body weight loss (relative)” value is listed as 1.0-1.5%. Besides, in data set [5] (3.0-5.0 mg/kg p.o., acute), the locomotor activity result is listed as “significant, albeit short-lasting, increase in locomotor activity”. Besides, in data set [5] (first dark phase after acute dosing), the “duration of induced locomotor activity” value was “up to 12 hours”.

Turning to `CCCc1nc2c(C)cc(-c3nc4ccccc4n3C)cc2n1Cc1ccc(-c2ccccc2C(=O)O)cc1` [Telmisartan], in data set [2] (Telmisartan 1.0 and 3.0 co-treatment with tesofensine 3.0 mg/kg p.o.), the “effect on tesofensine-induced rise in heart rate” value is listed as “did not revert the rise in heart rate”. In data set [2] (Telmisartan alone 3.0 mg/kg p.o.), the “heart rate and blood pressure, drug alone” value is “no effect on heart rate and blood pressure”. In addition, the “effect on Tesofensine-induced increases in diastolic and systolic blood pressure” value in data set [2] (Telmisartan co-treatment with tesofensine 3.0 mg/kg p.o., p>0.05 compared to Tesofensine alone) was “did not lead to a significant prevention of Tesofensine-induced hypertension”. In addition, the “heart rate compared to tesofensine alone” value in data set [2] (highest dose of Telmisartan (3.0 mg/kg) combined with tesofensine 3.0 mg/kg p.o.) was “significant increase in heart rate as compared to tesofensine administration alone”. Moreover, in data set [3], the “effect on food intake per se” value is listed as “neither antihypertensive drug exhibited an effect” and the “effect on tesofensine-induced reduction in food intake” value is listed as “did also not affect tesofensine-induced reductions in food intake”. Further, in data set [4], the “effect on body weight regulation per se” value is “neither antihypertensive drug exhibited an effect” and the “effect on tesofensine-induced reduction in body weight” value is recorded as “did also not affect”.

With `COCCc1ccc(OCC(O)CNC(C)C)cc1` (centres unmarked) [Metoprolol, 1-(Isopropylamino)-3-[4-(2-methoxyethyl)-phenoxy]-propan-2-ol], in data set [2] (Metoprolol 10 mg/kg and 20 mg/kg co-treatment with tesofensine 3.0 mg/kg p.o.), the “effect on tesofensine-induced tachycardia” value was “fully reversed tesofensine-induced tachycardia”. Also, the “effect on tesofensine-evoked increase in diastolic pressure” value in data set [2] (Metoprolol 20 mg/kg co-treatment with tesofensine 3.0 mg/kg p.o., first light phase, 12-24 hours post-treatment) is given as “reversed by co-treatment with Metoprolol”. The “effect on tesofensine-induced rise in systolic blood pressure” value in data set [2] (Metoprolol 20 mg/kg co-treatment with tesofensine 3.0 mg/kg p.o., for up to 24 hours) is recorded as “normalization of the systolic blood pressure”. Further, the “diastolic blood pressure, drug alone” value in data set [2] (Metoprolol 20 mg/kg p.o. alone, first 24 hours) is “did not produce any significant effects on diastolic blood pressure”. Further, the “duration of heart rate lowering effect” value in data set [2] (Metoprolol 10 and 20 mg/kg p.o., after administration) is recorded as “up to 24 hours”. Further, in data set [3], the “effect on food intake per se” value is “neither antihypertensive drug exhibited an effect” and the “effect on tesofensine-induced reduction in food intake” value is listed as “did also not affect tesofensine-induced reductions in food intake”. For the same molecule, in data set [4], the “effect on body weight regulation per se” value is “neither antihypertensive drug exhibited an effect” and the “effect on tesofensine-induced reduction in body weight” value was “did also not affect”. For the same molecule, in data set [5] (co-administered with tesofensine 3.0 mg/kg p.o., compared to tesofensine alone), the “effect on tesofensine-induced locomotor activity” value was “completely prevented the locomotor activity inducing effect by tesofensine”.
